The target of assay [1] is T1, Reg1_301-599 (amino acids 301-599 of human Regnase-1) phosphorylation by IKKβ (Homo sapiens, UniProt Q5D1E8).
T1 construct: made in house; host or cells: Expi293 cells
T1 sequence (Q5D1E8 301-599): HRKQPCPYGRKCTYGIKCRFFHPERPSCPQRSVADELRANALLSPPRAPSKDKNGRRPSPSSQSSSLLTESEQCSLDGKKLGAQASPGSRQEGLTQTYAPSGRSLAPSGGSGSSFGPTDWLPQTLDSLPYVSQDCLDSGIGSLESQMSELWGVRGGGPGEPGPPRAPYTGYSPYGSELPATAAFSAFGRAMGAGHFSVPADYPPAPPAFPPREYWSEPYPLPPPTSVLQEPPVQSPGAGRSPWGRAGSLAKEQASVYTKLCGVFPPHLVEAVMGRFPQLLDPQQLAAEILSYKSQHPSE
The assay can be described thus: Regnase-1 phosphorylation inhibition by compounds (AlphaScreen), IKKβ, C-terminal Regnase-1. The format is biochemical. The settings on record: Table 14, read-out: Phosphorylation inhibition Reg1_301-599, 50% inhibition concentration (IKKβ). An excerpt:
The full-length sequence of human Regnase-1 (UniProt ID: Q5D1E8) was used to prepare a construct having a FLAG tag on the N-terminal side and a recognition sequence for biotin ligase BirA on the C-terminal side (FL_Reg1) as a target protein. The above-mentioned Regnase-1 was expressed in mammalian Expi293 cells, purified with FLAG M2 agarose, and isolated by gel filtration chromatography. When biotinylation was required, methods from nonpatent documents (BMC biotechnology, 2008,8,41; and Protein Science, 1999,8,921-929) were used.
Among the full-length human Regnase-1 sequence, the 1st to 546th amino acid sequence was prepared and made into a construct having a FLAG tag on the N-terminal side and a biotin ligase BirA recognition sequence on the C-terminal side (herein, a Regnase-1 lacking the C-terminal domain of Regnase-1 (amino acids 547 to 599 in the case of SEQ ID NO: 2) is referred to as “ΔCTD_Reg1”. “ΔCTD_Reg1” is different from “Regnase-1ΔCTD”, which is a C-terminal domain deletion variant resulting from a frameshift mutation caused by a 1 bp deletion at codon 517, as prepared in Example 13). In addition, the sequence from amino acids 301 to 599 of the full-length human Regnase-1 sequence was designated as C-terminal Regnase-1, and a construct having a FLAG tag on the N-terminal side and a recognition sequence for biotin ligase BirA on the C-terminal side was prepared (Reg1_301-599). The above-mentioned Regnase-1 was expressed in mammalian Expi293 cells, purified with FLAG M2 agarose, and isolated by gel filtration chromatography. When biotinylation was required, methods of nonpatent documents (BMC biotechnology, 2008,8,41; and Protein Science, 1999,8,921-929) were used.
Using Kinase assay buffer III (manufactured by SignalChem) supplemented with 2 mM DTT, 100 μM sodium vanadate, and 2 mM manganese chloride, kinase (IKKβ (manufactured by SignalChem) or TBK1 (manufactured by SignalChem)) and Regnase-1 were reacted in the presence of 10 μM ATP at room temperature for 2 hours to perform a phosphorylation reaction.
Phosphorylated Regnase-1 was detected by the AlphaScreen system. After each of the above-mentioned phosphorylated Regnase-1 antibodies was added and reacted at room temperature for one hour, anti-FLAG AlphaLISA Acceptor Beads (manufactured by PerkinElmer) and Protein A AlphaScreen Donor Beads (manufactured by PerkinElmer) were added, and EnVision (manufactured by PerkinElmer) was used to measure the excited luminescence. As a result, phosphorylated Regnase-1 produced by the phosphorylation reaction by kinase was specifically detected, and signals were confirmed to be enhanced in a manner dependent on Regnase-1 and kinase concentrations (FIG. 24).
After mixing 2 nM of the above-mentioned Regnase-1 and the compound, phosphorylated Regnase-1 produced by the phosphorylation reaction was detected by the AlphaScreen system. As the results, the inhibition rate was calculated from the signals obtained when adding the compound at each concentration, by defining the signal obtained with Regnase-1 alone to be 100% inhibition rate, and the signal obtained when the same amount of solvent (DMSO) is added in place of the compound as 0% inhibition rate. The 50% inhibition concentration (μM) was calculated from the obtained dose response curve (Table 11).

Assay [2] deals with T2, FL_Reg1 (full-length human Regnase-1) phosphorylation by TBK1 (Homo sapiens, UniProt Q5D1E8).
T2 construct: made in house; host or cells: Expi293 cells
T2 sequence (Q5D1E8 1-599): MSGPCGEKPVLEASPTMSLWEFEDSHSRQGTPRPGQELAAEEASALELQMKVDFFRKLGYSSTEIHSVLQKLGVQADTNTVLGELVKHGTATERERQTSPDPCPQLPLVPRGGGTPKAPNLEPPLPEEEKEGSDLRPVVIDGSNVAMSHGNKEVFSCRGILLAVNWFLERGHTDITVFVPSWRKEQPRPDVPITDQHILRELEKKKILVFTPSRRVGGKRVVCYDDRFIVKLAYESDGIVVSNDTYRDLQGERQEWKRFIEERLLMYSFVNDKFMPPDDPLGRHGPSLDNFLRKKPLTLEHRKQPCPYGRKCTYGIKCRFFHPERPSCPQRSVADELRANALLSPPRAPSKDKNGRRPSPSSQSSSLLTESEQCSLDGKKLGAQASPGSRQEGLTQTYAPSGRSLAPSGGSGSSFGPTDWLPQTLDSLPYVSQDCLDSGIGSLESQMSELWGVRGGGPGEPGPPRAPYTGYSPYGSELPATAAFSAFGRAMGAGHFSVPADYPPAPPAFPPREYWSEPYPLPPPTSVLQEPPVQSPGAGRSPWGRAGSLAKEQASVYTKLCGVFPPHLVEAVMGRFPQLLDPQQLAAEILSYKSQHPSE
Kind of assay: Regnase-1 phosphorylation inhibition by compounds (AlphaScreen), TBK1, full-length Regnase-1. The format is biochemical. An outline of the steps:
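FLAG/BirA-tagged human Regnase-1 constructs (full-length, 1–546 or 301–599), expressed in Expi293 cells, were used at 2 nM with compound and phosphorylated by IKKβ or TBK1 with 10 μM ATP, DTT, vanadate and MnCl2 for 2 h at room temperature. Phospho-Regnase-1 was read by AlphaScreen; IC50 came from % inhibition curves normalised to DMSO and Regnase-1-alone signals.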

Where [3] appears, read: Table 13, phosphorylation by TBK1, read-out: Phosphorylation inhibition FL_Reg1, 50% inhibition concentration (TBK1).
The mark [4] stands for this setting: Table 11, 2 nM Regnase-1, AlphaScreen, read-out: 50% inhibition concentration, Regnase-1 phosphorylation, FL_Reg1, TBK1.

Read-outs that look alike come from different tables or passages of the source. Residues, ends and D or L forms follow the SMILES beside them.

For `CC[C@H](C)[C@@H]1NC(=O)[C@H](CC(=O)O)NC(=O)[C@H](C)N(C)C(=O)C[C@@H](C(=O)N2CCCC2)NC(=O)[C@H](Cc2ccc(O)cc2)NC(=O)[C@H](CC(=O)O)NC(=O)[C@H](Cc2c[nH]c3ccccc23)NC(=O)[C@H](Cc2ccc(O)cc2)NC(=O)[C@H](CC(=O)O)NC(=O)[C@H](Cc2ccccc2)NC(=O)[C@H](Cc2c[nH]c3ccccc23)NC1=O` [PP18] (HELM PEPTIDE1{[meA].D.I.W.F.D.Y.W.D.Y.D.[C1CCN([*:1])C1]}$PEPTIDE1,PEPTIDE1,1:R1-11:R3$$$V2.0), the results for the IC50 in assay [1] and in assay [2] (setting [3]) were 0.5 µM and 0.6 µM, respectively.

Turning to `CC[C@H](C)[C@@H]1NC(=O)[C@H](Cc2c[nH]c3ccccc23)NC(=O)[C@@H](Cc2ccccc2)NC(=O)[C@H](CCCCN)NC(=O)[C@H](C)N(C)C(=O)C[C@@H](C(=O)N2CCCC2)NC(=O)[C@H](CCC(=O)O)NC(=O)[C@H](Cc2ccccc2)NC(=O)[C@H](CO)NC(=O)[C@H](Cc2c[nH]cn2)NC(=O)[C@H](Cc2c[nH]cn2)NC1=O` [PP20] (HELM PEPTIDE1{[meA].K.[dF].W.I.H.H.S.F.E.D.[C1CCN([*:1])C1]}$PEPTIDE1,PEPTIDE1,1:R1-11:R3$$$V2.0), the results for the IC50 in assay [1] and in assay [2] (setting [3]) were greater than 62.1 µM and 38.5 µM, respectively.

As for `CC[C@H](C)[C@@H]1NC(=O)[C@H](Cc2c[nH]c3ccccc23)NC(=O)[C@H](CCC(N)=O)NC(=O)[C@H](Cc2ccc(O)cc2)NC(=O)[C@H](C(C)C)NC(=O)[C@H](C)NC(=O)[C@H](Cc2ccc(O)cc2)NC(=O)[C@H](CCCNC(=N)N)NC(=O)[C@H](C)N(C)C(=O)C[C@@H](C(=O)N2CCCC2)NC(=O)[C@@H]2CCCN2C(=O)[C@H](Cc2ccc(O)cc2)NC1=O` [PP12] (HELM PEPTIDE1{[meA].R.Y.A.V.Y.Q.W.I.Y.P.D.[C1CCN([*:1])C1]}$PEPTIDE1,PEPTIDE1,1:R1-12:R3$$$V2.0), the figures for the IC50 in assay [1] and in assay [2] (setting [3]) were 20.7 µM and 12.7 µM, respectively.

Consider `CC[C@H](C)[C@@H]1NC(=O)[C@H](CCCNC(=N)N)NC(=O)[C@H](Cc2ccc(O)cc2)NC(=O)[C@H](Cc2c[nH]c3ccccc23)NC(=O)[C@H](C)NC(=O)[C@H](CO)NC(=O)[C@H](C)NC(=O)[C@H](Cc2c[nH]cn2)NC(=O)[C@H](CCCCN)NC(=O)[C@@H](C)N(C)C(=O)C[C@@H](C(=O)N2CCCC2)NC(=O)[C@H](Cc2c[nH]c3ccccc23)NC1=O` [PP3] (HELM PEPTIDE1{[C[C@H](C(=O)[*:2])N(C)[*:1]].K.H.A.S.A.W.Y.R.I.W.D.[C1CCN([*:1])C1]}$PEPTIDE1,PEPTIDE1,1:R1-12:R3$$$V2.0), for which the IC50 was found to be 6.8 µM in assay [1] and 3.9 µM in assay [2] (setting [4]).

For `CC[C@H](C)[C@@H]1NC(=O)[C@H](Cc2c[nH]c3ccccc23)NC(=O)[C@H](CCCNC(=N)N)NC(=O)[C@H](Cc2ccccc2)NC(=O)[C@H](CCC(N)=O)NC(=O)[C@H](C)NC(=O)[C@H](Cc2ccccc2)NC(=O)[C@H](CCCCN)NC(=O)[C@H](C)N(C)C(=O)C[C@@H](C(=O)N2CCCC2)NC(=O)[C@@H]2CCCN2C(=O)[C@H](Cc2ccc(O)cc2)NC1=O` [PP11] (HELM PEPTIDE1{[meA].K.F.A.Q.F.R.W.I.Y.P.D.[C1CCN([*:1])C1]}$PEPTIDE1,PEPTIDE1,1:R1-12:R3$$$V2.0), the figures for the IC50 in assay [1] and in assay [2] (setting [3]) were greater than 62.1 µM and 29.1 µM, respectively.

Turning to `CC(C)[C@@H]1NC(=O)[C@H](CCCCN)NC(=O)[C@H](Cc2ccc(O)cc2)NC(=O)[C@H](Cc2c[nH]c3ccccc23)NC(=O)[C@H](CO)NC(=O)[C@H]([C@@H](C)O)NC(=O)[C@H](C)N(C)C(=O)C[C@@H](C(=O)N2CCCC2)NC(=O)[C@H](CCC(N)=O)NC(=O)CNC(=O)[C@H](Cc2c[nH]c3ccccc23)NC(=O)[C@H](CC(N)=O)NC1=O` [PP1] (HELM PEPTIDE1{[meA].T.S.W.Y.K.V.N.W.G.Q.D.[C1CCN([*:1])C1]}$PEPTIDE1,PEPTIDE1,1:R1-12:R3$$$V2.0), the results for the IC50 in assay [1] and in assay [2] (setting [4]) were greater than 62.1 µM and 54.5 µM, respectively.

For `CC[C@H](C)[C@@H]1NC(=O)[C@H](CO)NC(=O)[C@H](CCCNC(=N)N)NC(=O)[C@H](Cc2ccc(O)cc2)NC(=O)[C@H](Cc2ccc(O)cc2)NC(=O)[C@H](Cc2c[nH]c3ccccc23)NC(=O)[C@H](CO)NC(=O)[C@H](CCC(N)=O)NC(=O)[C@H](Cc2ccc(O)cc2)NC(=O)[C@H](CC(N)=O)NC(=O)[C@H](C)N(C)C(=O)C[C@@H](C(=O)N2CCCC2)NC(=O)[C@H](Cc2c[nH]c3ccccc23)NC1=O` [PP10] (HELM PEPTIDE1{[meA].N.Y.Q.S.W.Y.Y.R.S.I.W.D.[C1CCN([*:1])C1]}$PEPTIDE1,PEPTIDE1,1:R1-13:R3$$$V2.0), the results for the IC50 in assay [1] and in assay [2] (setting [3]) were 1.8 µM and 0.2 µM, respectively.

For the compound `CC[C@H](C)[C@@H]1NC(=O)[C@H](CCCCN)NC(=O)[C@H](Cc2ccc(O)cc2)NC(=O)[C@H](Cc2c[nH]c3ccccc23)NC(=O)[C@H](CO)NC(=O)[C@H](CO)NC(=O)[C@H]([C@@H](C)O)NC(=O)[C@@H]2CCCN2C(=O)[C@@H](C)N(C)C(=O)C[C@@H](C(=O)N2CCCC2)NC(=O)[C@H](Cc2c[nH]c3ccccc23)NC1=O` [PP23] (HELM PEPTIDE1{[C[C@H](C(=O)[*:2])N(C)[*:1]].P.T.S.S.W.Y.K.I.W.D.[C1CCN([*:1])C1]}$PEPTIDE1,PEPTIDE1,1:R1-11:R3$$$V2.0), the IC50 was greater than 62.1 µM in assay [1] and 18.8 µM in assay [2] (setting [3]).

For the origin of these results see patent US20250018014A1, “METHOD FOR TREATING AND/OR PREVENTING REGNASE-1-RELATED DISEASE” (OSAKA UNIVERSITY, priority 2018, published 2025).
